Laboratory results published in patent publication US5677305A, “Oxopyridinylquinoxaline derivative” (Shionogi & Co., Ltd., priority 1994, dated 1997).

Columns and labels:
[1] = system: glycine binding site of the NMDA receptors; settings: in words; cited from earlier work
[2] = biological target: T1, glycine binding site of NMDA receptors (Rattus norvegicus, UniProt P35439); test: competitive binding to a glycine binding site of NMDA receptors ([3H]glycine); design: species or system Slc-Wistar rat; settings: for IC50: [3H]glycine 100 nM, rat cerebral cortex membrane, 0° C., 10 minutes
T1 construct: the cerebral cortex of an Slc-Wistar rat (250 to 300 g in weight) was homogenized; from tissue; host or cells: cerebral cortex of Slc-Wistar rat, washed and Triton X-100 treated membranes
Protocol: The ability of the compounds of the present invention to bind to a glycine binding site of the NMDA receptors can be measured, for example, using competitive assay in vitro as described below.
(§1) A rat cerebral cortex is homogenized with a buffer solution, and repeatedly centrifuged and resuspended in a buffer to prepare a membrane sample. The membrane sample is mixed with a solution containing [^3 H] glycine and a compound of interest and incubated for a predetermined period of time. Then, the reaction of the mixture is terminated by dilution and filtration using filter paper. Radioactivity on the filter paper is measured by a liquid scintillation counter. Non-specific binding is measured with 1 mM of non-radioactive glycine to work out IC50.
Assay for competitive binding of 6-nitro-7-(4-oxo-4H-pyridin-1-yl)-1,4-dihydroquinoxaline-2,3-dione (Ia) to a glycine binding site of NMDA receptors.
First, the cerebral cortex of an Slc-Wistar rat (250 to 300 g in weight) was homogenized in 5 mM Tris acetic acid buffer in 20-fold volume (containing 1 mM EGTA, 0.1 mM PMSF, and 0.01% Bacitracin, pH 7.4). The cerebral cortex was centrifuged at 50,000×g for 30 minutes and resuspended in a buffer. This process was repeated four times. The final suspension was stored at -80° C. The frozen suspension was thawed at room temperature and incubated with 0.08% Triton X-100 solution at […] for 10 minutes. The resultant suspension was then washed twice and suspended in 50 mM Tris-acetate buffer (pH 7.4) to give a membrane sample. The membrane sample was mixed with 100 nM [^3 H]glycine and solutions in a series of concentrations of Compound Ia obtained in Example 1. The mixtures were incubated at 0° C. for 10 minutes. Each of the mixtures was diluted and filtered using Whatman GF/C filter paper so as to terminate the reaction, and radioactivity of ^3 H remaining on the filter paper was measured by a scintillation counter for liquid. […] IC50 value of Compound Ia was determined using YM900 (a compound of Example 15 described in WO92/07847) as a control in the same way as described above.

AMPA receptors = test: competitive binding to AMPA receptors ([3H]AMPA); design: species or system Slc-Wistar rat; settings: [3H]AMPA 30 nM, rat cerebral cortex membrane, 100 mM KSCN, 0° C., 30 minutes
Protocol: The binding ability of the compounds of the present invention with respect to the AMPA receptors can be measured, for example, by the following competitive assay.
as §1, with “H] AMPA” for “H] glycine”, “non-radioactive glutamate” for “non-radioactive glycine”
Assay for competitive binding of 6-nitro-7-(4-oxo-4H-pyridin-1-yl)-1,4-dihydroquinoxaline-2,3-dione (Ia) to AMPA receptors.
First, the cerebral cortex of an Slc-Wistar rat (250 to 300 g in weight) was homogenized in 30 mM Tris acetic acid buffer in 10-fold volume (containing 2.5 mM CaCl2, pH 7.1). […] Each of the mixtures was diluted and filtered using Whatman GF/C filter paper so as to terminate the reaction, and radioactivity of ^3 H remaining on the filter paper was measured by a scintillation counter for liquid. […] IC50 value of Compound Ia was determined using YM900 as a control in the same way as described above.

| IC50 [2] [µM] | IC50 (AMPA receptors) [nM] | antagonistic effects as strong as that of YM900 (times) ([2]; Ia vs YM900, from Table 2) | SMILES | antagonistic effects on the glycine binding site of the NMDA receptors [1] |
| --- | --- | --- | --- | --- |
| – | – | – | N#Cc1cc2[nH]c(=O)c(=O)[nH]c2cc1[N+](=O)[O-] [CNQX, 6-cyano-7-nitroquinoxaline-2,3-dione] | exhibit antagonistic effects on the glycine binding site of the NMDA receptors |
| – | – | – | O=c1[nH]c2cc([N+](=O)[O-])c([N+](=O)[O-])cc2[nH]c1=O [DNQX, 6,7-dinitroquinoxaline-2,3-dione] | exhibit antagonistic effects on the glycine binding site of the NMDA receptors |
| 67 | 280 | – | O=c1[nH]c2cc(-n3ccnc3)c([N+](=O)[O-])cc2[nH]c1=O [YM900, 6-imidazolyl-7-nitroquinoxaline-2,3-(1H, 4H)-dione] | – |
| 6.6 | 100 | approximately ten | O=c1ccn(-c2cc3[nH]c(=O)c(=O)[nH]c3cc2[N+](=O)[O-])cc1 [Ia, 6-nitro-7-(4-oxo-4H-pyridin-1-yl)-1,4-dihydroquinoxaline-2,3-dione] | – |
